Results taken from ChEMBL document CHEMBL1275577, “Study of the in vitro activities of rifaximin and comparator agents against 536 anaerobic intestinal bacteria from the perspective of potential utility in pathology involving bowel flora” (Antimicrob Agents Chemother, 2009).

Experiments:
Type in all cases: functional
Bacteroides fragilis = experiment: Antimicrobial activity against Bacteroides fragilis by Wadsworth agar dilution method
Bacteroides ovatus = experiment: Antimicrobial activity against Bacteroides ovatus by Wadsworth agar dilution method
Bacteroides caccae = experiment: Antimicrobial activity against Bacteroides caccae by Wadsworth agar dilution method
Bacteroides nordii = experiment: Antimicrobial activity against Bacteroides nordii by Wadsworth agar dilution method
Bacteroides uniformis = experiment: Antimicrobial activity against Bacteroides uniformis by Wadsworth agar dilution method
[1] = test system: Desulfovibrio desulfuricans; experiment: Antimicrobial activity against Desulfovibrio desulfuricans by Wadsworth agar dilution method
[2] = test system: Desulfovibrio fairfieldensis; experiment: Antimicrobial activity against Desulfovibrio fairfieldensis by Wadsworth agar dilution method
Desulfovibrio vulgaris = experiment: Antimicrobial activity against Desulfovibrio vulgaris by Wadsworth agar dilution method; conditions: Nitratidesulfovibrio vulgaris
Desulfovibrio sp. = experiment: Antimicrobial activity against Desulfovibrio sp. by Wadsworth agar dilution method
[3] = test system: Fusobacterium necrophorum; experiment: Antimicrobial activity against Fusobacterium necrophorum by Wadsworth agar dilution method
Fusobacterium sp. = experiment: Antimicrobial activity against Fusobacterium sp. by Wadsworth agar dilution method
Porphyromonas = experiment: Antimicrobial activity against Porphyromonas sp. by Wadsworth agar dilution method
[4] = test system: Porphyromonas asaccharolytica; experiment: Antimicrobial activity against Porphyromonas asaccharolyticus by Wadsworth agar dilution method
Porphyromonas somerae = experiment: Antimicrobial activity against Porphyromonas somerae by Wadsworth agar dilution method
Prevotella bivia = experiment: Antimicrobial activity against Prevotella bivia by Wadsworth agar dilution method
[5] = test system: Enterocloster clostridioformis; experiment: Antimicrobial activity against Clostridium clostridioforme by Wadsworth agar dilution method
Clostridium hathewayi = experiment: Antimicrobial activity against Clostridium hathewayi by Wadsworth agar dilution method; conditions: Hungatella hathewayi
Clostridium bartlettii = experiment: Antimicrobial activity against Clostridium bartlettii by Wadsworth agar dilution method; conditions: Intestinibacter bartlettii
Clostridium bolteae = experiment: Antimicrobial activity against Clostridium bolteae by Wadsworth agar dilution method; conditions: Enterocloster bolteae
Clostridium butyricum = experiment: Antimicrobial activity against Clostridium butyricum by Wadsworth agar dilution method
Clostridium fallax = experiment: Antimicrobial activity against Clostridium fallax by Wadsworth agar dilution method
Tissierella praeacuta = experiment: Antimicrobial activity against Clostridium hastiforme by Wadsworth agar dilution method
[6] = test system: Clostridium paraputrificum; experiment: Antimicrobial activity against Clostridium paraputrificum by Wadsworth agar dilution method
Fusobacterium mortiferum = experiment: Antimicrobial activity against Clostridium rectum by Wadsworth agar dilution method
Clostridium scindens = experiment: Antimicrobial activity against Clostridium scindens by Wadsworth agar dilution method
Clostridium septicum = experiment: Antimicrobial activity against Clostridium septicum by Wadsworth agar dilution method
Clostridium spiroforme = experiment: Antimicrobial activity against Clostridium spiroforme by Wadsworth agar dilution method; conditions: Thomasclavelia spiroformis
Clostridium sporogenes = experiment: Antimicrobial activity against Clostridium sporogenes by Wadsworth agar dilution method
Clostridium subterminale = experiment: Antimicrobial activity against Clostridium subterminale by Wadsworth agar dilution method
Atopobium minutum = experiment: Antimicrobial activity against Atopobium minutum by Wadsworth agar dilution method
[7] = test system: Bifidobacterium adolescentis; experiment: Antimicrobial activity against Bifidobacterium adolescentis by Wadsworth agar dilution method
Bifidobacterium bifidum = experiment: Antimicrobial activity against Bifidobacterium bifidum by Wadsworth agar dilution method
Bifidobacterium breve = experiment: Antimicrobial activity against Bifidobacterium breve by Wadsworth agar dilution method
Bifidobacterium dentium = experiment: Antimicrobial activity against Bifidobacterium dentium by Wadsworth agar dilution method
Bifidobacterium longum = experiment: Antimicrobial activity against Bifidobacterium longum by Wadsworth agar dilution method
[8] = Antimicrobial activity against Bifidobacterium pseudocatenulatum by Wadsworth agar dilution method
Collinsella aerofaciens = experiment: Antimicrobial activity against Colinsella aerofaciens by Wadsworth agar dilution method
Eubacterium cylindroides = experiment: Antimicrobial activity against Eubacterium cylindroides by Wadsworth agar dilution method; conditions: Faecalitalea cylindroides
Eubacterium limosum = experiment: Antimicrobial activity against Eubacterium limosum by Wadsworth agar dilution method
Holdemania filiformis = experiment: Antimicrobial activity against Holdemania filiformis by Wadsworth agar dilution method
[9] = test system: Lactobacillus catenaformis; experiment: Antimicrobial activity against Lactobacillus catenaformis by Wadsworth agar dilution method; conditions: Eggerthia catenaformis
[10] = test system: Lactiplantibacillus plantarum; experiment: Antimicrobial activity against Lactobacillus plantarum by Wadsworth agar dilution method
Propionibacterium avidum = experiment: Antimicrobial activity against Propionibacterium avidum by Wadsworth agar dilution method; conditions: Cutibacterium avidum
Finegoldia magna = experiment: Antimicrobial activity against Finegoldia magna by Wadsworth agar dilution method
[11] = test system: Peptoniphilus asaccharolyticus; experiment: Antimicrobial activity against Peptoniphilus asaccharolyticus by Wadsworth agar dilution method
[12] = test system: Peptostreptococcus anaerobius; experiment: Antimicrobial activity against Peptostreptococcus anaerobius by Wadsworth agar dilution method
Ruminococcus gnavus = experiment: Antimicrobial activity against Ruminococcus gnavus by Wadsworth agar dilution method; conditions: Mediterraneibacter gnavus
Blautia luti = experiment: Antimicrobial activity against Ruminococcus luti by Wadsworth agar dilution method

CC(=O)Oc1ccccc1C(=O)Nc1ncc([N+](=O)[O-])s1 [NITAZOXANIDE]
0.25 µg/mL: MIC50 [5] | MIC90 [5]
0.5 µg/mL: MIC50 (Porphyromonas) | MIC50 [4] | MIC50 (Porphyromonas somerae) | MIC50 (Clostridium hathewayi) | MIC90 (Clostridium hathewayi) | MIC50 (Clostridium bartlettii) | MIC50 (Clostridium bolteae) | MIC50 (Clostridium butyricum) | MIC50 (Clostridium fallax) | MIC50 (Tissierella praeacuta) | MIC50 [6] | MIC50 (Fusobacterium mortiferum) | MIC50 (Clostridium scindens) | MIC50 (Clostridium septicum) | MIC50 (Clostridium spiroforme) | MIC50 (Clostridium sporogenes) | MIC50 (Clostridium subterminale) | MIC50 (Finegoldia magna) | MIC50 [11] | MIC50 [12] | MIC50 (Ruminococcus gnavus) | MIC50 (Blautia luti)
4 µg/mL: MIC50 (Bacteroides fragilis) | MIC90 (Bacteroides fragilis) | MIC90 (Bacteroides ovatus) | MIC90 (Bacteroides caccae) | MIC50 (Bacteroides nordii) | MIC90 (Bacteroides nordii) | MIC50 (Bacteroides uniformis) | MIC90 (Bacteroides uniformis) | MIC50 [1] | MIC90 [1] | MIC90 [2] | MIC90 (Desulfovibrio vulgaris) | MIC90 (Desulfovibrio sp.) | MIC50 (Prevotella bivia) | MIC90 (Clostridium bartlettii) | MIC90 (Clostridium bolteae) | MIC90 (Clostridium butyricum) | MIC90 (Clostridium fallax) | MIC90 (Tissierella praeacuta) | MIC90 [6] | MIC90 (Fusobacterium mortiferum) | MIC90 (Clostridium scindens) | MIC90 (Clostridium septicum) | MIC90 (Clostridium spiroforme) | MIC90 (Clostridium sporogenes) | MIC90 (Clostridium subterminale)
32 µg/mL: MIC90 (Atopobium minutum) | MIC90 [7] | MIC90 (Bifidobacterium bifidum) | MIC90 (Bifidobacterium breve) | MIC90 (Bifidobacterium dentium) | MIC90 (Bifidobacterium longum) | MIC90 [8] | MIC90 (Collinsella aerofaciens) | MIC90 (Eubacterium cylindroides) | MIC90 (Eubacterium limosum) | MIC90 (Holdemania filiformis) | MIC90 [9] | MIC90 [10] | MIC90 (Propionibacterium avidum)
8 µg/mL: MIC90 [3] | MIC90 (Fusobacterium sp.) | MIC90 (Prevotella bivia)
1 µg/mL: MIC50 [2] | MIC50 (Desulfovibrio vulgaris) | MIC50 (Desulfovibrio sp.) | MIC50 [3] | MIC50 (Fusobacterium sp.) | MIC90 (Porphyromonas) | MIC90 [4] | MIC90 (Porphyromonas somerae) | MIC90 (Finegoldia magna) | MIC90 [11] | MIC90 [12] | MIC90 (Ruminococcus gnavus) | MIC90 (Blautia luti)
2 µg/mL: MIC50 (Bacteroides ovatus) | MIC50 (Bacteroides caccae) | MIC50 (Atopobium minutum) | MIC50 [7] | MIC50 (Bifidobacterium bifidum) | MIC50 (Bifidobacterium breve) | MIC50 (Bifidobacterium dentium) | MIC50 (Bifidobacterium longum) | MIC50 [8] | MIC50 (Collinsella aerofaciens) | MIC50 (Eubacterium cylindroides) | MIC50 (Eubacterium limosum) | MIC50 (Holdemania filiformis) | MIC50 [9] | MIC50 [10] | MIC50 (Propionibacterium avidum)
